According to patent US10357537B2, “Cyclotides as immunosuppressive agents” (priority 2011, dated 2019):
Marks after values point to notes of the source that are not given here.

Columns and labels:
[1] = test system: activated human primary PBMC; assay: Flow cytometric forward-side-scatter analysis of viability and proliferation; assay type: cell-based; conditions: extract 50-100 μg/mL; CPT 30 μg/mL
Procedure: After completion of the chemical analysis, different concentrations of the crude O. affinis cyclotide extract were tested for its anti-proliferative capacity on activated human primary PBMC (FIG. 2).

[2] = test system: activated human primary PBMC; conditions: kalata B1 1.8-14 μM; CPT 30 μg/mL; melittin up to 1.6 μM
Procedure: (§1) After cultivation, the cells were assessed in bioassays as described in the text.
The levels of apoptosis were determined using the annexin V-FITC apoptosis detection kit (eBioscience, Frankfurt, Germany) according to the manufacturer's instructions. After annexin V staining, propidium iodide solution (PI; eBioscience) was added and the cells were incubated in the dark, followed by a flow cytometric analysis to determine the amount of apoptosis and necrosis. CPT (30 μg/mL) and Triton-X 100 (0.5%) was used as positive controls for apoptosis and necrosis, respectively.
Cellular apoptotic and necrotic hallmarks were measured by using inter-nucleosomal DNA fragmentation (subG1^+ cells) assay and phosphatidylserine surface analysis through a single and combinatory annexin V and propidium iodide staining. This double staining process allowed the discrimination between viable (annexin^−/PI^−), apoptotic (annexin^+/PI^− and annexin^+/PI^+) or necrotic (annexin^−/PI^+) cells.

[3] = test system: activated human primary PBMC; assay: Anti-proliferative CFSE cell division assay on anti-CD3/CD28-activated PBMC; conditions: PBMCs, anti-CD3/28 mAbs, 72 h, cyclotides 1.8-14 μM; n.a. = not active
Procedure: Human peripheral blood mononuclear cells (PBMC) were isolated from the blood of healthy adult donors obtained from the Blood Transfusion Centre (University Medical Center, Freiburg, Germany). Venous blood was centrifuged on a LymphoPrep™ gradient (density: 1.077 g/cm^3, 20 min, 500×g, 20° C.; Progen, Heidelberg, Germany). Afterwards cells were washed twice with medium and cell viability and concentration was determined using the trypan blue exclusion test. PBMC were cultured in RPMI 1640 medium supplemented with 10% heat-inactivated fetal calf serum (PAA, Coelbe, Germany), 2 mM L-glutamine, 100 U/mL penicillin and […] (all from Invitrogen, Karlsruhe, Germany). The cells were cultured at 37° C. in a humidified incubator with a 5% CO2/95% air atmosphere. All experiments conducted on human material were approved by the Ethics committee of the University of Freiburg.
as §1
For cell proliferation and cell division tracking analysis PBMC were harvested and washed twice in cold PBS and resuspended in PBS at a concentration of 5×10^6 cells/mL. Cells were incubated for 10 min at 37° C. with carboxyfluorescein diacetate succinimidyl ester (CFSE; 5 μM: Sigma-Aldrich, Taufkirchen, Germany). The staining reaction was stopped by washing twice with complete medium. Afterwards, the cell division progress was analysed using flow cytometric analysis.
The anti-proliferative effect of cyclotide mutants/variants was tested according to Example 5. […] Afterwards the cell proliferation was assessed by analysing cell division using flow cytometric-based histogram analysis.

nematodes = assay: Relative nematocidal activity (other assays, Table 2); assay type: in vivo; conditions: some cells print two values separated by a slash
[4] = Relative insecticidal activity (other assays, Table 2); conditions: in vivo
[5] = test system: IL-2 surface receptor CD25 on PBMC; assay: IL-2 surface receptor CD25 expression, FACS; assay type: cell-based, human; conditions: cyclotides 4 μM, CsA 5 μg/mL, PHA-L; stimulated untreated PBMCs = 100%
Procedure: PBMCs were isolated from blood samples of healthy adults that were provided by the transfusion center of the university hospital in Freiburg (Germany). […] The lymphocyte-enriched layer was transferred into a new vessel and washed three times with PBS and centrifuged again (10 min, twice with 300×g and last time with 800 rpm, 20° C.). For the following experiments, the cells were either stained with CFSE or diluted with medium to 4*10^6 cells/ml. Cells were counted in alight microscope using trypan blue staining and a hemocytometer.
(§2) Following purification, PBMCs were equilibrated for 2 h at 37° C. […] This was followed by washing of each well with 100 μl PBS (centrifugation for 5 min, 1000 rpm, 20° C.) and re-suspending the cells in 100 μl medium for further assays.
Activated cells were transferred into a 96-well plate, centrifuged (5 min, 1000 rpm, 20° C.), washed one time with 100 μl FACS-buffer and stained with CD25 PE for 15 min at 4° C. Then cells were washed twice with FCS-buffer and resuspended in 100 μl FACS-buffer, transferred into FACS vials with a total volume of 250 μl and the expression of IL2 surface receptor CD25 was measured by FACS analysis using a FACSCalibur instrument (BD Biosciences).
Amongst other pathways, T-cell proliferation is determined by binding of the cytokine IL-2 to its cell surface receptor. Therefore the influence of cyclotides on the expression of the IL-2 receptor was tested. […] As control substance CsA was used. […] Treatment with V10A yields 114%±12.5, V10K yields 112%±16.3 and T8K yields 114%±17.3 CD25 surface expression after 24 h as compared to the control (FIG. 11B).

PHA-L-stimulated PBMC = assay: Proliferation of PHA-L-stimulated CFSE-labelled PBMC with or without exogenous IL-2; assay type: cell-based, human; conditions: cyclotides 4 μM, CsA 5 μg/mL, 3 day culture; for proliferation with exogenous IL-2: IL-2 10 U/mL
Procedure: FIG. 13. Proliferation capacity of cyclotide-treated PBMC in the presence of exogenous IL-2. […] The cells were cultured without exogenous IL-2 (10 U/mL) (A and B) or in the presence of IL-2 (C and D). The CFSE-labelled cells were measured after a 3 day culture period by flow cytometry and representative data are presented in dot plots (A and C). Data are presented as mean and standard deviation (SD) of three independent experiments.
as §2
Purified PBMCs (5*10^6 cells/ml) were incubated with […] of the fluorescent dye CFSE (5-carbofluoreszenein-ciacetat-succinylester) for 10 min at 37° C. The reaction was stopped using medium, cells were washed one time with medium by centrifugation (10 min, 300×g, 20° C.) and diluted with medium to 4*10^6 cells/ml.

[6] = test system: IFN-gamma production of activated PBMCs; assay: IFN-gamma secretion of PBMC, ELISA-based FACS; assay type: cell-based, human; conditions: 36 h past stimulation
Procedure: FIG. 14. IFN-γ secretion by cyclotide-treated PBMC. […] Untreated cells were used as control. Following 24 h or 36 h of cultivation, the cells were restimulated with PMA/Ionomycin for further 6 hour. The amount of IFN-γ was measured in the supernatant of cultured cells using an ELISA-based flow cytometric method. The data are presented as mean and standard deviation (SD) of three independent experiments.
Activated cells were resuspended in 50 μl of medium, transferred into a 96-well plate and treated with 10 μg/ml PHA-L. After incubation for 24 h cells were re-stimulated with PMA (50 ng/ml) und ionomycin (500 ng/ml) for 6 h. Next, the cells were transferred into Eppendorf tubes, centrifuged (5 min, 3000 RPM, 20° C.) und 50 μl of the supernatant was again transferred into new tubes and stored at −20° C. Production of cytokines was measured and quantified using the FlowCytomix™ kit according to manufacturer's instructions.
Therefore it is of interest to determine whether cyclotides only have anti-proliferative effects or also affect the effector function of T-lymphocytes, which would directly relate to changes in the IFN-gamma and TNF-alpha production. Therefore, the production of both cytokines of cyclotide-treated, activated PBMCs at an early time point after PBMC activation was tested.

[7] = test system: degranulation marker LAMP-1 (CD107a) on activated PBMC; assay: CD107a degranulation analysis; assay type: cell-based, human; conditions: after 36 h; T20K 4 μM, CsA 5 μg/mL
Procedure: FIG. 16. Degranulation capacity of cyclotide-treated activated human PBMC. […] After 36 hour of cultivation the cells were restimulated with PMA/Ionomycin for 2.5 hours in the presence of a CD107a mAbs and GolgiStop reagent to determine the amount of degranulation by flow cytometry. Representative data are shown in dot plots (A) and in (B) data are presented as mean and standard deviation (SD) of three independent experiments.
Activated cells were grown for 36 h and then treated for re-stimulation with PMA (50 ng/ml) und ionomycin (500 ng/ml) and stained with CD107a PE. After 1 h the reaction was stopped with 2 μl Golgi-Stop (1:10) and incubated for 2.5 h at 37° C. The cells were transferred into a 96-well plate, centrifuged (5 min, 1000 RPM, 20° C.) and washed with 100 μl FACS-buffer. Afterwards, PBMCs were stained with CD8 PE-Cy5 for 15 min at 4° C. and following to wash cycles with FACS-buffer the cells were resuspended in 100 μl, transferred into FACS vials with a total volume of 250 μl and the degranulation was measured by FACS analysis.
After determining the influence of cyclotide treatment on the effector function of PBMCs on the basis of measuring IFN-gamma and TNF-alpha cytokine levels, it is of interest to determine an effect of cyclotides on the degranulation activity. Activation of cytotoxic CD8^+-lymphocytes lead to a release of cytolytic granules, which contain/express lysosomal-associated membrane protein 1 (CD107; LAMP-1). During degranulation, the granule vesicle membranes fuse with the membranes of activated CD8^+-lymphocytes and therefore LAMP-1 can be used as a marker protein for the cytotoxic activity of T-lymphocytes, which can be measured with FACS. After 36 h, 42%±21.4 of the CsA- and 49%±16.8 of the T20K-treated cells contain the degranulation marker LAMP-1 as compared to the control (FIG. 16). This can be interpreted in the way that CsA- and T20K-treated cells have reduced cytotoxicity.

[8] = Relative hemolytic activity (other assays, Table 2); assay type: cell-based; conditions: some values given for the Ala mutant

| Molecule | dead cells / harm to cells (forward-side-scatter) [1] | induction of apoptosis [2] | IC50 (μM) ± STDEV, inhibition of PBMC proliferation [3] | Relative activity in other assays (fold difference to kB1): nematocidal (nematodes) | Relative activity in other assays (fold difference to kB1): insecticidal [4] | CD25 expression after 48 h [5] | CD25 surface expression after 24 hours [5] | proliferation with exogenous IL-2 (PHA-L-stimulated PBMC) | proliferation as compared to the control cells, without exogenous IL-2 (PHA-L-stimulated PBMC) | IFN-gamma production as compared to the control, 36 h [6] | cells containing the degranulation marker LAMP-1 as compared to the control [7] | Relative activity in other assays (fold difference to kB1): hemolytic [8] |
| --- | --- | --- | --- | --- | --- | --- | --- | --- | --- | --- | --- | --- |
| CC[C@@]1(O)C(=O)OCc2c1cc1n(c2=O)Cc2cc3ccccc3nc2-1 [camptothecin, reference compound] | induced a high proportion of dead cells | significantly increased the fractions of these cells |  |  |  |  |  |  |  |  |  |  |
| kalata B1 mutant GLPVCGEKCVGGTCNTPGCTCSWPVCTRN (SEQ ID No. 8) [Kalata B1 T8K, Kalata T8K] |  |  | not active (n.a.)^b | <0.2 fold difference to kB1 | 0.2 fold difference to kB1 | no significant change in receptorexpression | 114%±17.3 | did not change the effect on proliferation | no effect on the proliferation | did not induce significant changes in the level of IFN-gamma | no influence on the degranulation activity |  |
| kalata B1 mutant GLPVCGETCAGGTCNTPGCTCSWPVCTRN (SEQ ID No. 9) [Kalata V10A] |  |  |  |  | 1.1 fold difference to kB1 | no significant change in receptorexpression | 114%±12.5 | did not change the effect on proliferation | no effect on the proliferation | did not induce significant changes in the level of IFN-gamma |  | 0.5 fold difference to kB1 |
